Drawing on patent publication US7129234B2, “Phenyl heterocyclyl ethers” (Pfizer Inc., priority 2001, dated 2006), this text covers melting point for four molecules.

Counter-ions that a name gives are not always drawn.

Turning to `CNCc1cc2ccccc2nc1Oc1ccc(Cl)c(Cl)c1` (as salt: HCl) [Example 104, [2-(3,4-Dichlorophenoxy)-3-quinolinyl]-N-methylmethanamine], the melting point (as a rule, the temperature of the solid-liquid transition) is 224 to 226 °C. Molecule `CNCc1cccnc1Oc1ccc(Cl)c(Cl)c1` (as salt: HCl) [Example 105, [2-(3,4-Dichlorophenoxy)-3-pyridinyl]-N-methylmethanamine] displayed a melting point of 198 to 203 °C. `CNCc1cnccc1Oc1ccc(Cl)c(Cl)c1` (as salt: hydrochloride) [Example 103, [4-(3,4-Dichlorophenoxy)-3-pyridinyl]-N-methylmethanamine hydrochloride]: the melting point lay in the range of 198 to 203 °C. `CN(C)Cc1cccnc1Oc1ccc(Cl)cc1` (as salt: hydrochloride) [Example 106, [2-(4-Chlorophenoxy)-3-pyridinyl]-N,N-dimethylmethanamine hydrochloride] had a melting point of 195 to 197 °C.
